“Also recorded” adds a separate entry of the source.
What was measured:
[1] = mouse tissues; FIGS. 1-5 of US 2013/0064768 A1; cited from earlier work
[2] = Comparison of myocardial kinetics of TPP+ and Flurpiridaz (FIG. 4); assay type: in vivo
Source text: FIG. 4 is a graphical illustration depicting comparison of myocardial kinetics of TPP^| and Flurpiridaz. The black line (the top line) depicts Flurpiridaz kinetics; whereas, the red line (the bottom line) depicts TPP^+ kinetics. Concentrations are normalized to remove the effect of injected radioactivity dose.
To provide a direct observation Applicants compared the kinetics of ^18F-TPP^+ to those of ^18F-Flurppiridaz, a tracer with high first pass capillary extraction (E>0.9). […] Thus it is unlikely that TPP^+ can provide useful myocardial flow measurements, per se.

[3] = Dynamic PET/CT with Logan plot, parametric map of 18F-TPP+ volume of distribution Vd; assay type: in vivo, domestic swine; settings: pig with experimental tissue injury in LAD territory, FIG. 8
Protocol: The study cohort consisted of n=9 domestic swine which were divided into two groups, control (n=6) and tissue injury (scar) (n=3). […] Pigs were housed and maintained under the supervision of the Massachusetts General Hospital Animal Care and Use Committee. Studies were conducted serially, one pig at a time, from August 2014 till October 2015. The weight of the pigs at scan averaged 53.1 kg with a range from 30-92 kg.
Pigs were fasted 12 hours prior to induction of anesthesia, sedated with 4.4 mg/kg Telazol, placed on 5% masked isoflurane, intubated, maintained with 1.5% isoflurane and mechanically ventilated. Vital signs were monitored continuously. Vascular access was obtained via the femoral veins for injection of PET radiotracer and iodinated contrast media. […]
PET Scans were performed on a Siemens Biograph PET/CT scanner: A planar x-ray topogram was performed to define the field of view (FOY) with the heart centered for computed tomography (CT), CT-angiogram (CTA) and PET acquisitions. […] Each frame was reconstructed using a filtered back projection algorithm to yield a radioactivity concentration map in units of Bq/cc with 83 slices and a voxel size of 2.14×2.14×3 mm^3.
Dynamic PET data were analyzed using a Logan plot (Logan, Fowler et al. 1990) to produce parametric images of the ^18F-TPP^+ volume of distribution, Vd and reoriented into the short axis projection. […]

[4] = Time course of tracer concentration to steady state (FIG. 4, FIG. 11); assay type: in vivo, domestic swine
Source text: Applicants use a few administration methods including a constant infusion, a pulse or bolus injection or a combination of a constant infusion a pulse or bolus injection. To date, most of Applicants work has used the kinetic approach because it carries the complete information available from our measurements. By analyzing the kinetic data (concentration vs time), Applicants can infer the steady state based on the ratio of the tissue concentration to the plasma concentration. […] The addition of the pulse or bolus injection to the constant infusion can shorten the time needed to impose the steady state for TPP^+. In this case both the plasma and myocardial concentrations become constant after about 90 minutes. The two color pictures are from studies in the same pig but measured on different days, one using constant infusion and the other the kinetic protocol. Note the excellent agreement between the two methods.

[5] = Arterial and venous blood sampling of 18F-TPP+, whole blood to plasma concentration ratio; assay type: in vivo, domestic swine
Protocol: Pigs were fasted 12 hours prior to induction of anesthesia, sedated with 4.4 mg/kg Telazol, placed on 5% masked isoflurane, intubated, maintained with 1.5% isoflurane and mechanically ventilated. Vital signs were monitored continuously. Vascular access was obtained via the femoral veins for injection of PET radiotracer and iodinated contrast media. An arterio-venous shunt was placed in the left femoral artery for blood withdrawal.
Arterial blood sampling of ^18F-TPP^+ were drawn every 10 seconds for the first 3 minutes, then at 1 minute intervals for 5 minutes, and at increasing intervals until 120 minutes post injection. In two studies, venous several blood samples were also drawn at 5, 10, 15, 30, 60 and 90 minutes for comparison with arterial samples. All blood samples were centrifuged to determine plasma and red cell concentration histories. Concentration ratios of whole blood to plasma were computed.

[6] = in vivo; cited from earlier work

COC1=C(OC)C(=O)C(CCCCCCCCCC[P+](c2ccccc2)(c2ccccc2)c2ccccc2)=C(C)C1=O [MitoQ]
reaching a steady state within an hour [1]: none of MitoQ, DecylTPP, FluroUndecylTPP and TPMP reach a steady state

CCCCCCCCCC[P+](c1ccccc1)(c1ccccc1)c1ccccc1 [DecylTPP]
reaching a steady state within an hour [1]: none of MitoQ, DecylTPP, FluroUndecylTPP and TPMP reach a steady state

C[P+](c1ccccc1)(c1ccccc1)c1ccccc1 [TPMP, triphenylmethylphosphonium^+]
reaching a steady state within an hour [1]: none of MitoQ, DecylTPP, FluroUndecylTPP and TPMP reach a steady state

[18F]c1ccc([P+](c2ccccc2)(c2ccccc2)c2ccccc2)cc1 [^18F-TPP^+, ^18F-tetraphenylphosphonium]
accumulation in the myocardium [2]: accumulates slowly in the myocardium | extraction compared with 18F-Flurppiridaz ([2]; myocardium): much lower | kinetics compared with 18F-Flurppiridaz ([2]; myocardium): much slower kinetics | volume of distribution Vd ([3]; areas in other vascular territories): 25 mL/cc | volume of distribution Vd ([3]; core of the injury): 2 mL/cc | time remaining in the steady state ([4]; in a subject): at least 2 hours | time to reach a steady state in subject / tissue ([4]; in vivo tissue, FIG. 4 and FIG. 11): within minutes; also recorded: within two hours | time after which plasma and myocardial concentrations become constant ([4]; intravenous pulse of TPP+ followed by constant infusion, FIG. 11): about 90 minutes | concentration ratio for whole blood versus plasma ([5]; constant value after injection): 0.95 | time after injection at which whole blood versus plasma ratio became constant ([5]; in vivo): about 10 minutes | time the whole blood versus plasma ratio remained constant (duration of measurement) ([5]; in vivo): 120 min | agreement of venous and arterial samples ([5]; samples obtained at least 10 minutes after injection): good agreement

CC(C)(C)n1ncc(OCc2ccc(COCCF)cc2)c(Cl)c1=O [^18F-Flurppiridaz]
first pass capillary extraction E [6]: > 0.9

Source: patent publication US11109819B2, “System and method for quantitatively mapping mitochondrial membrane potential” (The General Hospital Corporation, priority 2016, dated 2021)
